4 compounds from US4004023A, “1-(4-Butylphenyl)-1-(3,4-methylenedioxyphenyl)-2-nitroalkanes and synergistic insecticidal mixtures therewith” (Mobil Oil Corporation, priority 1975, dated 1977) can be followed below.

Common to all, as to assay type: in vivo
The subject of one data set is yellow fever mosquito. The experiment in a line: whole plant or invertebrate. The following applies: Aedes aegypti, fourth stage larvae, 24 hour exposure, read-out: percent kill, yellow fever mosquito (YF); for mortality at 1 ppm: 1 ppm (line printed as 100 ppm; footnote: 10 and 1 ppm for YF); for mortality at 10 ppm: 10 ppm (line printed as 500 ppm; footnote: 10 and 1 ppm for YF). How it is done:
(§1) The new 1-(4-butylphenyl)-1-(3,4-methylenedioxyphenyl)-2-nitroalkanes of this invention (Examples 4-6) were evaluated in standard greenhouse insecticide tests using housefly (HF), Mexican bean beetle (MB), Southern armyworm (SA) and yellow fever mosquito (YF). The rates of application were 500 and 100 ppm of active ingredient except in the mosquito test where test rates were 10 and 1 ppm. The results as set forth in Table I below indicate the percent kill of each insect species.
Yellow fever mosquito; fourth stage larvae were exposed to a solution of the active compound in water. The active material was initially dissolved in acetone and then added to the water. The compounds were screened at 10 ppm and at 1 ppm using approximately 10 larvae per 100 ml of treated water. Each treatment was replicated twice. Mortality was determined after 24 hour exposure.

Another data set has as its system Southern armyworm. The experiment in a line: whole plant or invertebrate. The following applies: Spodoptera eridania, in Phaseolus lunatus, third or fourth instar larvae, 48 to 72 hour, read-out: percent kill, Southern armyworm (SA). As to the method: as §1
(§2) Southern armyworm and Mexican bean beetle; lima bean leaves of uniform size were momentarily dipped in a water-acetone solution of the test compound and the treated leaves were then placed on moistened filter paper in 9 cm. petri dishes and allowed to air dry. When dry, five, third or fourth instar larvae were introduced and encouraged to feed on the treated foliage by means of confinement. The dishes were closed and held for observation of mortality and feeding during a 48 to 72 hour period.

Another data set deals with Mexican bean beetle. The experiment in a line: whole plant or invertebrate. The following applies: Epilachna varivestis, third or fourth instar larvae, 48 to 72 hour, read-out: percent kill, Mexican bean beetle (MB). As to the method: as §1, §2
The subject of data set [1] is housefly. The experiment in a line: insecticide synergist test of mixtures on housefly. To be noted: 25 ppm (0.0025 wt. %) total of both active ingredients; numbers in parentheses are % in mixture; 1440 min. As to the method: (§3) Housefly; 1 milliliter of an aqueous solution or suspension of the test compound was pipeted into a 9 cm. petri dish containing filter paper and 0.1 gram of granular sugar. Ten adult houseflies were admitted and the dish closed. Observations were made periodically for knockdown and at 24 hours for mortality.
The new 1-(4-butylphenyl)-1-(3,4-methylenedioxyphenyl)-2-nitroalkanes of this invention were evaluated as insecticide synergists in standard insecticide tests. In general the compounds of this invention were combined with the insecticide -- 1-(p-tert-butylphenyl)-1-(p-ethoxyphenyl)-2-nitrobutane (pending application Serial No. 410,935, filed October 29, 1973) designated as Example 8 above -- in varying proportions starting from, for example, 90% Example 4, 5 or 6 plus 10% Example 8 and decreasing to, for example 10% Example 4, 5 or 6, plus 90% Example 8. In all cases, the total sum of active ingredients (i.e. Examples 4, 5 or 6 plus 8) equaled 25 ppm. These mixtures were tested on housefly following the standard greenhouse test procedure, outlined above. The results as set forth below indicate the percent kill (or percent control) of the insect species: […]

Data set [2] has as its system housefly. In words: whole plant or invertebrate. The following applies: Musca domestica, adult houseflies, mortality at 24 hours, read-out: percent kill, housefly (HF). How it is done: as §1, §3

Structures are written as SMILES.

As to `CCC(C)c1ccc(C(c2ccc3c(c2)OCO3)C(CC)[N+](=O)[O-])cc1` (centres unmarked) [Example 6, 1-(4-sec-Butylphenyl)-1-(3,4-methylenedioxyphenyl)-2-nitrobutane], in the data set with yellow fever mosquito, the mortality at 1 ppm was determined as 100% and the mortality at 10 ppm was determined as 100%. Further, in the data set with Southern armyworm, the mortality at 100 ppm turned out to be 30% and the mortality at 500 ppm is 100%. Also, in the data set with Mexican bean beetle, the mortality at 100 ppm came to 90% and the mortality at 500 ppm came out at 100%. The “% CONTROL (percent kill or percent control), housefly” value in the data set on housefly [1] was 0%. Moreover, in the data set on housefly [2], the mortality at 100 ppm is 100% and the mortality at 500 ppm was 100%.

`CCOc1ccc(C(c2ccc(C(C)(C)C)cc2)C(CC)[N+](=O)[O-])cc1` (centres unmarked) [Example 8, 1-(p-tert-Butylphenyl)-1-(p-ethoxyphenyl)-2-nitrobutane]: the “% CONTROL (percent kill or percent control), housefly” value in the data set on housefly [1] was 40%.

With `CCC(C(c1ccc(C(C)(C)C)cc1)c1ccc2c(c1)OCO2)[N+](=O)[O-]` (centres unmarked) [Example 4, 1-(4-tert-Butylphenyl)-1-(3,4-methylenedioxyphenyl)-2-nitrobutane], in the data set on yellow fever mosquito, the mortality at 1 ppm came out at 40% and the mortality at 10 ppm came out at 100%. Besides, in the data set with Southern armyworm, the mortality at 100 ppm came out at 100% and the mortality at 500 ppm was determined as 100%. For the same compound, in the data set on Mexican bean beetle, the mortality at 100 ppm was 100% and the mortality at 500 ppm was found to be 100%. Besides, in the data set on housefly [2], the mortality at 100 ppm is 20% and the mortality at 500 ppm was 100%.

As to `CC(C(c1ccc(C(C)(C)C)cc1)c1ccc2c(c1)OCO2)[N+](=O)[O-]` (centres unmarked) [Example 5, 1-(4-tert-Butylphenyl)-1-(3,4-methylenedioxyphenyl)-2-nitropropane], in the data set on yellow fever mosquito, the mortality at 1 ppm turned out to be 100% and the mortality at 10 ppm is 100%. Besides, in the data set with Southern armyworm, the mortality at 100 ppm was found to be 80% and the mortality at 500 ppm came to 100%. Besides, in the data set on Mexican bean beetle, the mortality at 100 ppm amounted to 100% and the mortality at 500 ppm came out at 100%. Moreover, in the data set with housefly [2], the mortality at 100 ppm amounted to 10% and the mortality at 500 ppm was 100%.
